From ChEMBL document CHEMBL4507258 (2021)

Columns and labels:
[1] = test system: Tyrosine-protein kinase ABL1 (Homo sapiens), P00519 [Q252H]; conditions: Compound concentration 1000.0 nM
[2] = target: Tyrosine-protein kinase ABL1 (Homo sapiens) (UniProt P00519); conditions: Compound concentration 1000.0 nM
[3] = target: Tyrosine-protein kinase ABL2 (Homo sapiens) (UniProt P42684); conditions: Compound concentration 1000.0 nM
[4] = target: BMP-2-inducible protein kinase (Homo sapiens) (UniProt Q9NSY1); conditions: Compound concentration 1000.0 nM
[5] = target: Cyclin-dependent kinase 7 (Homo sapiens) (UniProt P50613); conditions: Compound concentration 1000.0 nM
[6] = target: Dual specificity protein kinase CLK2 (Homo sapiens) (UniProt P49760); conditions: Compound concentration 1000.0 nM
[7] = target: Casein kinase I isoform alpha-like (Homo sapiens) (UniProt Q8N752); conditions: Compound concentration 1000.0 nM
[8] = target: Discoidin domain-containing receptor 2 (Homo sapiens) (UniProt Q16832); conditions: Compound concentration 1000.0 nM
[9] = target: Serine/threonine-protein kinase 17B (Homo sapiens) (UniProt O94768); conditions: Compound concentration 1000.0 nM
[10] = target: Mitogen-activated protein kinase 4 (Homo sapiens) (UniProt P31152); conditions: Compound concentration 1000.0 nM
[11] = target: Mitogen-activated protein kinase 7 (Homo sapiens) (UniProt Q13164); conditions: Compound concentration 1000.0 nM
[12] = target: Tyrosine-protein kinase Fgr (Homo sapiens) (UniProt P09769); conditions: Compound concentration 1000.0 nM
[13] = test system: Receptor-type tyrosine-protein kinase FLT3 (Homo sapiens), P36888 [K663Q]; conditions: Compound concentration 1000.0 nM
[14] = target: Tyrosine-protein kinase JAK1 (Homo sapiens) (UniProt P23458); conditions: Compound concentration 1000.0 nM
[15] = target: Mitogen-activated protein kinase 10 (Homo sapiens) (UniProt P53779); conditions: Compound concentration 1000.0 nM
[16] = target: Serine/threonine-protein kinase 10 (Homo sapiens) (UniProt O94804); conditions: Compound concentration 1000.0 nM
[17] = test system: Leucine-rich repeat serine/threonine-protein kinase 2 (Homo sapiens), Q5S007 [G2019S]; conditions: Compound concentration 1000.0 nM
[18] = target: Mitogen-activated protein kinase kinase kinase 15 (Homo sapiens) (UniProt Q6ZN16); conditions: Compound concentration 1000.0 nM
[19] = target: Mitogen-activated protein kinase kinase kinase 4 (Homo sapiens) (UniProt Q9Y6R4); conditions: Compound concentration 1000.0 nM
[20] = target: Dual specificity mitogen-activated protein kinase kinase 4 (Homo sapiens) (UniProt P45985); conditions: Compound concentration 1000.0 nM
[21] = target: Misshapen-like kinase 1 (Homo sapiens) (UniProt Q8N4C8); conditions: Compound concentration 1000.0 nM
[22] = target: Dual specificity mitogen-activated protein kinase kinase 7 (Homo sapiens) (UniProt O14733); conditions: Compound concentration 1000.0 nM
[23] = target: MAP kinase-interacting serine/threonine-protein kinase 1 (Homo sapiens) (UniProt Q9BUB5); conditions: Compound concentration 1000.0 nM
[24] = target: Serine/threonine-protein kinase 38 (Homo sapiens) (UniProt Q15208); conditions: Compound concentration 1000.0 nM
[25] = target: Serine/threonine-protein kinase Nek3 (Homo sapiens) (UniProt P51956); conditions: Compound concentration 1000.0 nM
[26] = target: Serine/threonine-protein kinase Nek5 (Homo sapiens) (UniProt Q6P3R8); conditions: Compound concentration 1000.0 nM
[27] = target: Cyclin-dependent kinase 17 (Homo sapiens) (UniProt Q00537); conditions: Compound concentration 1000.0 nM
[28] = target: Cyclin-dependent kinase 18 (Homo sapiens) (UniProt Q07002); conditions: Compound concentration 1000.0 nM
[29] = target: Calcium-dependent protein kinase 1 (Plasmodium falciparum) (UniProt P62344); conditions: Compound concentration 1000.0 nM
[30] = target: Cyclin-dependent kinase 2 homolog (Plasmodium falciparum (isolate 3D7)) (UniProt P61075); conditions: Compound concentration 1000.0 nM
[31] = target: Phosphatidylinositol 4-phosphate 3-kinase C2 domain-containing subunit beta (Homo sapiens) (UniProt O00750); conditions: Compound concentration 1000.0 nM
[32] = test system: Phosphatidylinositol 4,5-bisphosphate 3-kinase catalytic subunit alpha isoform (Homo sapiens), P42336 [M1043I]; conditions: Compound concentration 1000.0 nM
[33] = target: cAMP-dependent protein kinase catalytic subunit beta (Homo sapiens) (UniProt P22694); conditions: Compound concentration 1000.0 nM
[34] = target: Serine/threonine-protein kinase N2 (Homo sapiens) (UniProt Q16513); conditions: Compound concentration 1000.0 nM
[35] = target: Serine/threonine-protein kinase PRP4 homolog (Homo sapiens) (UniProt Q13523); conditions: Compound concentration 1000.0 nM
[36] = target: Receptor-interacting serine/threonine-protein kinase 1 (Homo sapiens) (UniProt Q13546); conditions: Compound concentration 1000.0 nM
[37] = target: Ribosomal protein S6 kinase alpha-3 (Homo sapiens) (UniProt P51812); conditions: Compound concentration 1000.0 nM
[38] = target: Ribosomal protein S6 kinase alpha-6 (Homo sapiens) (UniProt Q9UK32); conditions: Compound concentration 1000.0 nM
[39] = target: Activated CDC42 kinase 1 (Homo sapiens) (UniProt Q07912); conditions: Compound concentration 1000.0 nM
[40] = target: Serine/threonine-protein kinase ULK2 (Homo sapiens) (UniProt Q8IYT8); conditions: Compound concentration 1000.0 nM
[41] = target: Wee1-like protein kinase 2 (Homo sapiens) (UniProt P0C1S8); conditions: Compound concentration 1000.0 nM
[42] = target: Serine/threonine-protein kinase WNK2 (Homo sapiens) (UniProt Q9Y3S1); conditions: Compound concentration 1000.0 nM
[43] = target: Mitogen-activated protein kinase kinase kinase 20 (Homo sapiens) (UniProt Q9NYL2); conditions: Compound concentration 1000.0 nM
Mu-type opioid receptor = Mu-type opioid receptor (Homo sapiens, UniProt P35372); conditions: Compound concentration 10.0 uM
[44] = target: Sigma non-opioid intracellular receptor 1 (Homo sapiens, UniProt Q99720); conditions: Compound concentration 10.0 uM

Chain of Discoidin domain-containing receptor 2 (Homo sapiens) (Q16832 whole entry, the tested form may be a part): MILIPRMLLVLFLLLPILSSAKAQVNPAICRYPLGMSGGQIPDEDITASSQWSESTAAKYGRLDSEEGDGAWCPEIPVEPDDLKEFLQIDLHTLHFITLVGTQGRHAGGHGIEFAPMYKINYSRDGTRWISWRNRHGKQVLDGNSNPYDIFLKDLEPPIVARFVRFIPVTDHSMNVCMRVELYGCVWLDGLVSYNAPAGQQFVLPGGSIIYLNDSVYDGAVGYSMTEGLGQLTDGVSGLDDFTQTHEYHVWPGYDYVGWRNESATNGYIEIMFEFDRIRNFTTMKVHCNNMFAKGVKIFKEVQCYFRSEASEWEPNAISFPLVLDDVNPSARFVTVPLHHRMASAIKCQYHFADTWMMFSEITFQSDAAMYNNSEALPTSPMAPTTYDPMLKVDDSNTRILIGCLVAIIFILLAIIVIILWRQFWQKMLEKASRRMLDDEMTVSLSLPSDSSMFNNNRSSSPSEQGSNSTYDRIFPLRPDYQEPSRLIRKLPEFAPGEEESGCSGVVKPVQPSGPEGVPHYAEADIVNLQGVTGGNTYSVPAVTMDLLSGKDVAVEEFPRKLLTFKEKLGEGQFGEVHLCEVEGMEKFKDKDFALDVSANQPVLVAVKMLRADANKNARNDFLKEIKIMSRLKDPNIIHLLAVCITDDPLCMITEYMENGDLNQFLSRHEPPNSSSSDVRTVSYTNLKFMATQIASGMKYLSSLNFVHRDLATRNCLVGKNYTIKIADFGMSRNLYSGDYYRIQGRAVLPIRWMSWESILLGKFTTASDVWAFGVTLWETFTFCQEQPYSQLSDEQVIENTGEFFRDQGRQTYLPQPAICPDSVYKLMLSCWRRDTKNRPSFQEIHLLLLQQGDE
Chain of Serine/threonine-protein kinase ULK2 (Homo sapiens) (Q8IYT8 whole entry): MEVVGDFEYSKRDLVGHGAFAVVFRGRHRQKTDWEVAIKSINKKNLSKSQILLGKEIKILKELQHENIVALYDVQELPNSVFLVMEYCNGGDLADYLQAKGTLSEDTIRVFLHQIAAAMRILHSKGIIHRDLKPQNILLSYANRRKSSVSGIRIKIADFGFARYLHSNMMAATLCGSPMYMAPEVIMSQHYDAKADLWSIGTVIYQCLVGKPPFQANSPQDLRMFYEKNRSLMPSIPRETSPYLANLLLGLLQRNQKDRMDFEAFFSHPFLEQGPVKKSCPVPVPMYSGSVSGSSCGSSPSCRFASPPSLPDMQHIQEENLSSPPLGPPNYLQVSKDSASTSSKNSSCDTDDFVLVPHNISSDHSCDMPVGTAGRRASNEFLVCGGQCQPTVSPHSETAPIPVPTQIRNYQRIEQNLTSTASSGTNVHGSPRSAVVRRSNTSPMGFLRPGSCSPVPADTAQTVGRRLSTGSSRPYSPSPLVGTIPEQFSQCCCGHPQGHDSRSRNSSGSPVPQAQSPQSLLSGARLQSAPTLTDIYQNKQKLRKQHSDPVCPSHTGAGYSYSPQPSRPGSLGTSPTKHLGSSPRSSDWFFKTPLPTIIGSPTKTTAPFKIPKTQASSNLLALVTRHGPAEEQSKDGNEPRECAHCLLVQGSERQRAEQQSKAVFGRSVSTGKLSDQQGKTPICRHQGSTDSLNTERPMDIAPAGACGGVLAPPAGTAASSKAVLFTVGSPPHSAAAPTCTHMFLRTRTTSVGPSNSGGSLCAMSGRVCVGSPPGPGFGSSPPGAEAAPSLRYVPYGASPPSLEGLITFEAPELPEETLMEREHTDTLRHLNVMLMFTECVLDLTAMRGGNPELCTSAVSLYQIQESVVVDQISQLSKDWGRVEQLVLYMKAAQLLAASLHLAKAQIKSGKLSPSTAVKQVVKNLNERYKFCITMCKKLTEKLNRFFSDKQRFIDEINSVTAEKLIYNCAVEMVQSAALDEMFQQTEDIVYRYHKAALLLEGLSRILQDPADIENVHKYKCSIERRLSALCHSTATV
Chain of Mitogen-activated protein kinase kinase kinase 4 (Homo sapiens) (Q9Y6R4 whole entry): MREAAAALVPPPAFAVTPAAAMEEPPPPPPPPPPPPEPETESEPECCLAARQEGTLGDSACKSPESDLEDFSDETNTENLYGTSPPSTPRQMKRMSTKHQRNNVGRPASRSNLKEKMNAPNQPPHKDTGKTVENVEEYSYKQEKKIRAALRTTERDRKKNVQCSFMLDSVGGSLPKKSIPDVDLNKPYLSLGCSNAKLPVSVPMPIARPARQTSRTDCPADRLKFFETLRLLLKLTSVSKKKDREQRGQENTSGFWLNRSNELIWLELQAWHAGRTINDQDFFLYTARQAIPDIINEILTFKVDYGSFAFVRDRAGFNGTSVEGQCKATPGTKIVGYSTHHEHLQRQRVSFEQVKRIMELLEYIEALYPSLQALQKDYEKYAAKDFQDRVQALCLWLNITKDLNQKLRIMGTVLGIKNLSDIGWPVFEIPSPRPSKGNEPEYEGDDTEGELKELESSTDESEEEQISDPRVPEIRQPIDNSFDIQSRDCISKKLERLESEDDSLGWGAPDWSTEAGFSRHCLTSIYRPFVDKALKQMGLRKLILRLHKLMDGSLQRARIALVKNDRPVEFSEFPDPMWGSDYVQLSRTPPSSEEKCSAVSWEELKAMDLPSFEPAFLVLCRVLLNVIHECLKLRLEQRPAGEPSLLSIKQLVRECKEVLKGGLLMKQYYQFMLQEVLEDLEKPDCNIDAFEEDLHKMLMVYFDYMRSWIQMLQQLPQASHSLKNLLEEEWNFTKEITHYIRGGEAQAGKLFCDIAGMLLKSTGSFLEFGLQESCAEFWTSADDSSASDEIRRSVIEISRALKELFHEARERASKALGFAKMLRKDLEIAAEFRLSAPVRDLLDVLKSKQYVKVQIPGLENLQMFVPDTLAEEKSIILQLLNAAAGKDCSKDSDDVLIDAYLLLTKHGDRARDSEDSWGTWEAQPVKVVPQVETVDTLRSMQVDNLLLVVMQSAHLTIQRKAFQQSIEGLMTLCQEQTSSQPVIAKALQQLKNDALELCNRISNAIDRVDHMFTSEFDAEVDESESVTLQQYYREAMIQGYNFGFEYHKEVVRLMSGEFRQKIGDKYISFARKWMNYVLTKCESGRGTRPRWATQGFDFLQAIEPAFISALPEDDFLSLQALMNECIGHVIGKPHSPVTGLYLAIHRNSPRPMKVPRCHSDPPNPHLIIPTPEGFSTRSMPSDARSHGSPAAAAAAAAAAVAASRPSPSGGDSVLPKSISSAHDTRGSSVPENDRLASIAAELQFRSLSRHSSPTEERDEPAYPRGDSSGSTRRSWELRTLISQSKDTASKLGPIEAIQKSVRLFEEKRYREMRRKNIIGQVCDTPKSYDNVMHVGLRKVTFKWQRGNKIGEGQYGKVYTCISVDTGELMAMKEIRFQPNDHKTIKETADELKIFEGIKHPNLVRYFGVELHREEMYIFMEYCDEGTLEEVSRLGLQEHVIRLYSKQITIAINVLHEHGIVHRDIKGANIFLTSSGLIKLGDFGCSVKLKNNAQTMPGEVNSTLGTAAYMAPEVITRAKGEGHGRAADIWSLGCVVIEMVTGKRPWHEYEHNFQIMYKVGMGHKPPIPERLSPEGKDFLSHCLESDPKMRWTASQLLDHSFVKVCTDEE
Chain of Serine/threonine-protein kinase 10 (Homo sapiens) (O94804 whole entry, looked up): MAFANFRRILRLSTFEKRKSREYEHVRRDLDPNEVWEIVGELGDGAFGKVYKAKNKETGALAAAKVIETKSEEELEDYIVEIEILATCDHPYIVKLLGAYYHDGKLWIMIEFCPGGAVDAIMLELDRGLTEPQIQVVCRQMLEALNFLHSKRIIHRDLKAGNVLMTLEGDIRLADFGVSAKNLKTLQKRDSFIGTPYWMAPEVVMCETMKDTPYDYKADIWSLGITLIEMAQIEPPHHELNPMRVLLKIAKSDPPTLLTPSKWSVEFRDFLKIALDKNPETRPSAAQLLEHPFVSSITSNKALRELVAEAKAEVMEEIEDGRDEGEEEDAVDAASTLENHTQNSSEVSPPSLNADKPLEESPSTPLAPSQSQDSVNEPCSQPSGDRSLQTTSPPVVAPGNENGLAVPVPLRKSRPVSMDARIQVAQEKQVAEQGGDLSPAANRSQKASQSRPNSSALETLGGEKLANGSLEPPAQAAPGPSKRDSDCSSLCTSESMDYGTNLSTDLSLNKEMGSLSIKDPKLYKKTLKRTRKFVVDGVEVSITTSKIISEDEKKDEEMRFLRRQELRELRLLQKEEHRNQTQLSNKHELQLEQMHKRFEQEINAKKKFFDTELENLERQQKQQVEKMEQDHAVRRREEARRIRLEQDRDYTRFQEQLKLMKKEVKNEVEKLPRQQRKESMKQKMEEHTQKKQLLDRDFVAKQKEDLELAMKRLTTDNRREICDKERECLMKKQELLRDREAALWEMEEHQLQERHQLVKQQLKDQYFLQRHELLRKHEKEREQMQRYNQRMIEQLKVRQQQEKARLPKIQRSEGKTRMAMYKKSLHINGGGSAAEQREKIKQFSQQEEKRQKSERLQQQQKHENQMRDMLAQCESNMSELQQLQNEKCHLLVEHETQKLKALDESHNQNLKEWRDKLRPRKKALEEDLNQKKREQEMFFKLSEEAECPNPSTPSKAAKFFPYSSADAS
Chain of Tyrosine-protein kinase Fgr (Homo sapiens) (P09769 2-529 limits assumed): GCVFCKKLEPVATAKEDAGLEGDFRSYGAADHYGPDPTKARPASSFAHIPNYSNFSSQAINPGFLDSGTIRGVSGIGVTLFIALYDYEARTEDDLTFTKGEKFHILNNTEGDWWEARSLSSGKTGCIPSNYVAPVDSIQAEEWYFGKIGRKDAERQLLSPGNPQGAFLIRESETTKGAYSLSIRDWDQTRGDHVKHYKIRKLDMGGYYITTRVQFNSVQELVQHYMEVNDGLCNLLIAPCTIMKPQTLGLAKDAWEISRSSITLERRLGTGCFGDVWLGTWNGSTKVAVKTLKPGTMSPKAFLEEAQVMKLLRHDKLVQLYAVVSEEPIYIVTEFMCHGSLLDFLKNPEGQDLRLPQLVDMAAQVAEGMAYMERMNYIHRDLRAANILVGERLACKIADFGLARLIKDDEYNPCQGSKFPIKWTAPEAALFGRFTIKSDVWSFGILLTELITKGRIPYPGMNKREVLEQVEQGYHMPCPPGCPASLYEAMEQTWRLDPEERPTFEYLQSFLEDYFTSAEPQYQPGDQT

CCCCN(CCCC)C(=O)CN1C[C@@H](c2cc(OC)c3c(c2)OCO3)[C@H](C(=O)O)[C@H]1CC(C)(C)CCC [A-545]
residual activity [1]: 94.6% | residual activity [2]: 94.8% | residual activity [3]: 100% | residual activity [4]: 100% | residual activity [5]: 89.5% | residual activity [6]: 100% | residual activity [7]: 91.1% | residual activity [8]: 99.1% | residual activity [9]: 100% | residual activity [10]: 100% | residual activity [11]: 100% | residual activity [12]: 92.4% | residual activity [13]: 80.1% | residual activity [14]: 79% | residual activity [15]: 100% | residual activity [16]: 82.4% | residual activity [17]: 100% | residual activity [18]: 99% | residual activity [19]: 85.5% | residual activity [20]: 93.3% | residual activity [21]: 100% | residual activity [22]: 88.6% | residual activity [23]: 100% | residual activity [24]: 95.2% | residual activity [25]: 72.9% | residual activity [26]: 87.9% | residual activity [27]: 93.3% | residual activity [28]: 92.4% | residual activity [29]: 86.9% | residual activity [30]: 95.9% | residual activity [31]: 73.6% | residual activity [32]: 100% | residual activity [33]: 100% | residual activity [34]: 100% | residual activity [35]: 99.3% | residual activity [36]: 100% | residual activity [37]: 99.2% | residual activity [38]: 96.6% | residual activity [39]: 91.6% | residual activity [40]: 89.2% | residual activity [41]: 89.1% | residual activity [42]: 99.3% | residual activity [43]: 91.3% | inhibition (Mu-type opioid receptor): 58.5% | inhibition [44]: 93.6%

CCCCN(CCCC)C(=O)CN1C[C@H](c2cc(OC)c3c(c2)OCO3)[C@@H](C(=O)O)[C@@H]1CC(C)(C)CCC [ABT-546]
residual activity [1]: 97.7% | residual activity [2]: 96.5% | residual activity [3]: 100% | residual activity [4]: 100% | residual activity [5]: 100% | residual activity [6]: 100% | residual activity [7]: 100% | residual activity [8]: 76.6% | residual activity [9]: 100% | residual activity [10]: 100% | residual activity [11]: 100% | residual activity [12]: 100% | residual activity [13]: 100% | residual activity [14]: 98% | residual activity [15]: 91.1% | residual activity [16]: 100% | residual activity [17]: 100% | residual activity [18]: 100% | residual activity [19]: 88.7% | residual activity [20]: 74.4% | residual activity [21]: 88.4% | residual activity [22]: 90.8% | residual activity [23]: 93.3% | residual activity [24]: 80.7% | residual activity [25]: 99.1% | residual activity [26]: 100% | residual activity [27]: 99.3% | residual activity [28]: 100% | residual activity [29]: 82% | residual activity [30]: 72.2% | residual activity [31]: 65.9% | residual activity [32]: 83.7% | residual activity [33]: 100% | residual activity [34]: 100% | residual activity [35]: 100% | residual activity [36]: 100% | residual activity [37]: 100% | residual activity [38]: 76.4% | residual activity [39]: 100% | residual activity [40]: 88.8% | residual activity [41]: 100% | residual activity [42]: 60.2% | residual activity [43]: 85.2% | inhibition (Mu-type opioid receptor): 14.2% | inhibition [44]: 29.6%
